One assay deals with κ opioid receptor (Homo sapiens, UniProt P41145). In words: κ opioid competitive radioligand binding. The following applies: for Opioid receptor displacement (%) κ: Tested at 10 µM.
For assay [1], the target named is T1, δ opioid receptor (Homo sapiens, UniProt P41143). The assay is described as follows: δ opioid competitive radioligand binding. As to conditions: for Opioid receptor displacement (%) δ: Tested at 10 µM.
Assay [2] has as its target T2, μ opioid receptor (Homo sapiens, UniProt P35372). The assay is described as follows: μ opioid competitive radioligand binding. As to conditions: for Opioid receptor displacement (%) μ: Tested at 10 µM.
Assay [3] relates to Adult male Swiss Webster mice. The assay is described as follows: Mouse tetrad assay. The following applies: for Catalepsy Latency / Hotplate Latency (% MPE) / Tail-Flick Latency (% MPE) / Rectal temperature (°C): 30 min post-injection; for Rectal temperature (°C): change in core body temperature.
Assay [4] deals with T2, μ opioid receptor. In words: In vitro GTPγS functional assay, μ-opioid. It counts as biochemical.
The target in assay [5] is T1, δ opioid receptor. In words: In vitro GTPγS functional assay, δ-opioid. It counts as biochemical.
Setting [6] is: ip, dose not stated or 'lower doses' (10–100 mg/kg tested).

Read-outs that look alike come from different tables or passages of the source. Some results are limits rather than exact numbers.

As for `Oc1ccc(CC2NCCc3cc(O)c(O)cc32)cc1` (racemic) [Compound 11, (±)-higenamine], at κ opioid receptor, the “Opioid receptor displacement (%) κ” value is “did not show any significant displacements”. Moreover, at δ opioid receptor [1], the “Opioid receptor displacement (%) δ” value was “did not show any significant displacements”. In addition, at μ opioid receptor [2], the “Opioid receptor displacement (%) μ” value is on record as “did not show any significant displacements”.

In the case of `COc1cc2c3c(c1OC)-c1ccccc1C[C@H]3N(C)CC2` [Compound 1, nuciferine], the “Catalepsy Latency” value in assay [3] (10 mg/kg ip) is 3.875 ± 2.32 s; in assay [3] (30 mg/kg ip) it was 1.750 ± 0.62 s; in assay [3] (75 mg/kg ip), 3.500 ± 1.07 s; in assay [3] (100 mg/kg ip), 1.500 ± 0.27 s. The “Hotplate Latency (% MPE)” value in assay [3] (10 mg/kg ip) turned out to be 6.99 ± 2.61 % MPE; in assay [3] (30 mg/kg ip), 3.69 ± 3.01 % MPE; in assay [3] (75 mg/kg ip) it was 0.68 ± 2.73 % MPE; in assay [3] (100 mg/kg ip), 21.78 ± 7.16 % MPE. The “Tail-Flick Latency (% MPE)” value in assay [3] (10 mg/kg ip) amounted to 11.69 ± 6.074 % MPE; in assay [3] (30 mg/kg ip) it was 18.43 ± 10.50 % MPE; in assay [3] (75 mg/kg ip), 19.45 ± 6.16 % MPE; in assay [3] (100 mg/kg ip), 14.14 ± 15.52 % MPE. In addition, the “Rectal temperature (°C)” value in assay [3] (10 mg/kg ip) was −0.49 ± 0.31 °C; in assay [3] (30 mg/kg ip), −0.91 ± 0.31 °C; in assay [3] (75 mg/kg ip) it was −1.68 ± 0.38 °C; in assay [3] (100 mg/kg ip) it was −3.8 ± 0.57 °C. For the same molecule, the “Behavioral effects in tetrad assay (in words)” value was “only decreased locomotion and hypothermia at the same dose, but failed to display catalepsy and antinociceptive activity” in assay [3] (100 mg/kg/ip); “failed to show any cataleptic effect or toxicity in the form of tremors and convulsions” in assay [3] (setting [6]).

One may read the Ki as the equilibrium dissociation constant of an inhibitor or competing ligand from its target. As for `COc1cc2c(cc1OC)C(Cc1ccc(O)cc1)N(C)CC2` (stereo not shown) [Compound 4, armepavine], the figures for the inhibitory constant (Ki) on κ opioid receptor (read-out: κ Ki (µM) ± SEM), at δ opioid receptor [1] (read-out: δ Ki (µM) ± SEM) and on μ opioid receptor [2] (read-out: μ Ki (µM) ± SEM) were 13 ± 1.4 µM, 23.8 ± 3.7 µM and 2.7 ± 0.8 µM, respectively.

For `COc1cc2c(cc1O)[C@@H](Cc1ccc(O)cc1)N(C)CC2` [Compound 6, N-methylcoclaurine], the Ki was 0.9 ± 0.1 µM on κ opioid receptor (read-out: κ Ki (µM) ± SEM), 20.1 ± 3.1 µM at δ opioid receptor [1] (read-out: δ Ki (µM) ± SEM) and 4 ± 0.5 µM on μ opioid receptor [2] (read-out: μ Ki (µM) ± SEM).

In the case of `COc1cc2c(cc1O)C(Cc1ccc(O)cc1)NCC2` (stereo not shown) [Compound 7, coclaurine], the “Catalepsy Latency” value in assay [3] (10 mg/kg ip) was 1.25 ± 0.25 s; in assay [3] (30 mg/kg ip), 2.37 ± 0.59 s; in assay [3] (75 mg/kg ip), 1.75 ± 0.41 s; in assay [3] (100 mg/kg ip), 1.25 ± 0.25 s. Besides, the “Hotplate Latency (% MPE)” value in assay [3] (10 mg/kg ip) came to 10.15 ± 4.45 % MPE; in assay [3] (30 mg/kg ip) it was 5.46 ± 5.05 % MPE; in assay [3] (75 mg/kg ip), 15.49 ± 3.57 % MPE; in assay [3] (100 mg/kg ip), 6.08 ± 1.9 % MPE. Moreover, the “Tail-Flick Latency (% MPE)” value in assay [3] (10 mg/kg ip) turned out to be 16.57 ± 7.23 % MPE; in assay [3] (30 mg/kg ip), 1.43 ± 6.95 % MPE; in assay [3] (75 mg/kg ip) it was 13.95 ± 5.01 % MPE; in assay [3] (100 mg/kg ip) it was 10.07 ± 3.31 % MPE. In addition, the “Rectal temperature (°C)” value was 0.17 ± 0.08 °C in assay [3] (10 mg/kg ip), 0.1 ± 0.15 °C in assay [3] (30 mg/kg ip), −0.39 ± 0.05 °C in assay [3] (75 mg/kg ip) and −0.58 ± 0.23 °C in assay [3] (100 mg/kg ip). Also, the “Behavioral effects in tetrad assay (in words)” value in assay [3] (setting [6]) is listed as “did not influence any significant behavioral effects with the exception of weak locomotor activity”. For the same molecule, the Ki on κ opioid receptor is 2.2 ± 0.2 µM; on δ opioid receptor [1], 21.1 ± 2 µM; at μ opioid receptor [2] it was 5 ± 0.7 µM.

One may read the EC50 as the midpoint of the concentration-response curve. Read a high EC50 as lower potency in that assay. As to `COc1ccc(C[C@@H]2c3cc(Oc4cc(C[C@@H]5c6cc(OC)c(OC)cc6CCN5C)ccc4O)c(OC)cc3CCN2C)cc1` [Compound 10, neferine], the figures for the Ki at κ opioid receptor, at δ opioid receptor [1] and at μ opioid receptor [2] were 3.3 ± 0.4 µM, 0.7 ± 0.1 µM and 1.8 ± 0.2 µM, respectively. The EC50 was greater than 21 µM at μ opioid receptor [4] and 7.9 ± 2.1 µM at δ opioid receptor [5]. The “Functional character at μ opioid receptor by GTPγS assay” value on μ opioid receptor [4] (in words) was “weak μ partial agonist”.

For the molecule `COc1ccc(C[C@@H]2c3cc(OC)c(OC)cc3CCN2C)cc1` [Compound 12, 4´-O-methylarmepavine], on κ opioid receptor, the “Opioid receptor displacement (%) κ” value is given as “did not show any significant displacements”. Besides, the “Opioid receptor displacement (%) δ” value on δ opioid receptor [1] was “did not show any significant displacements”. In addition, the “Opioid receptor displacement (%) μ” value at μ opioid receptor [2] was “did not show any significant displacements”.

As to `COc1ccc(CC2c3cc(OC)c(OC)cc3CCN2C)cc1` (stereo not shown) [Compound 13, 4´,7-di-O-methylarmepavine], the “Opioid receptor displacement (%) κ” value at κ opioid receptor is reported as “did not show any significant displacements”. On δ opioid receptor [1], the “Opioid receptor displacement (%) δ” value is on record as “did not show any significant displacements”. Also, the “Opioid receptor displacement (%) μ” value at μ opioid receptor [2] is given as “did not show any significant displacements”.

Turning to `CCCCC/C=C\C/C=C\CCCCCCCC(=O)O` [Linoleic acid (LA), linoleic acid], the Ki on δ opioid receptor [1] amounted to 14.5 ± 2.4 µM.

In turn, `CCCCCCCCCCCCCCCC(=O)O` [Palmitic acid (PA), palmitic acid] registered a Ki at δ opioid receptor [1] greater than 21.1 µM.

For the molecule O-methylcoclaurine [Compound 5], the Ki on κ opioid receptor (read-out: κ Ki (µM) ± SEM) worked out at 3.5 ± 0.3 µM; at δ opioid receptor [1] (read-out: δ Ki (µM) ± SEM), 22.6 ± 3.9 µM; at μ opioid receptor [2] (read-out: μ Ki (µM) ± SEM), 2 ± 0.3 µM.

The record behind these values is paper PMC4636954 (Journal of ethnopharmacology, 2015).
